Test results published in PubChem BioAssay (NCI).
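Where inhibition never reached the appropriate level, the endpoint shown equals the highest concentration tested. Otherwise, values were interpolated linearly from a five-concentration, 48-hour dose response in 96-well plates. The concentration for 50% growth inhibition is given as GI50. TGI marks complete inhibition of growth.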

Columns and labels:
Experiment in all cases: NCI tumour cell line growth inhibition, 48 h
[1] = test system: HCT-116 colon
[2] = test system: SN12C renal
[3] = test system: UO-31 renal
[4] = test system: HT29 colon
[5] = test system: HOP-92 NSCLC
[6] = test system: TK-10 renal
[7] = test system: RXF 393 renal
[8] = test system: SF-295 CNS
[9] = test system: MDA-MB-435
[10] = test system: PC-3 prostate

Compound | TGI [1] [µM] | TGI [2] [µM] | TGI [3] [µM] | TGI [4] [µM] | TGI [5] [µM] | TGI [6] [µM] | TGI [7] [µM] | TGI [8] [µM] | GI50 [1] [µM] | GI50 [2] [µM] | GI50 [3] [µM] | GI50 [4] [µM] | GI50 [5] [µM] | GI50 [6] [µM] | GI50 [7] [µM] | GI50 [8] [µM] | GI50 [9] [µM] | TGI [9] [µM] | GI50 [10] [µM] | TGI [10] [µM]
CC(=O)/C(=C\C1=CCCO1)C(=O)Nc1ccccc1C | > 100 | > 100 | > 100 | > 100 | > 100 | > 100 | > 100 | > 100 | – | – | – | – | – | – | – | – | – | – | – | –
CC/C(=C(/CC)c1ccc(O)cc1)c1ccc([O-])cc1.CC/C(=C(/CC)c1ccc(O)cc1)c1ccc([O-])cc1.O=C([CH-]C(=O)c1ccccc1)c1ccccc1.O=C([CH-]C(=O)c1ccccc1)c1ccccc1.[Ti+4] | 17.3 | 26.9 | 38.6 | 32 | 27.2 | 76.9 | 25.7 | 35 | 5.22 | 14 | 21.8 | 18.1 | 14.2 | 30.2 | 10.7 | 17.9 | – | – | – | –
CCCN1CCN(c2ccc3nc(-c4ccc5nc(-c6cc(OC)ccc6OC)[nH]c5c4)[nH]c3c2)CC1 | 3.16 | 32.8 | 29.3 | 3.46 | 27 | – | 3.17 | 30.1 | 1.74 | 16.3 | 14.6 | 1.8 | 11 | – | 1.65 | 15.7 | 1.79 | 3.24 | 1.75 | 4.04
Cc1cc2cc3c(C)cc(=O)oc3c(C)c2o1 | > 100 | > 100 | > 100 | > 100 | > 100 | – | > 100 | > 100 | – | – | – | – | – | – | – | – | – | > 100 | – | > 100
O=C1NC2CCC(C2)C1c1ccccc1 (stereo not drawn) | – | > 100 | > 100 | > 100 | – | > 100 | > 100 | > 100 | – | – | – | – | – | – | – | – | – | – | – | –
Cc1cccc(Cl)c1NC(=O)/C=C/c1ccccc1 | > 100 | > 100 | – | > 100 | > 100 | > 100 | – | > 100 | – | – | – | – | – | – | – | – | – | > 100 | – | > 100
COC(=O)C12CC(c3ccccc31)C1C(=O)OC(=O)C12 (stereo not drawn) | > 100 | > 100 | > 100 | > 100 | > 100 | > 100 | > 100 | > 100 | – | – | – | – | – | – | – | – | – | – | – | –
CCN(CC)CCNC(=O)c1nn(C)c(=S)[nH]c1=S | > 100 | > 100 | > 100 | > 100 | > 100 | > 100 | > 100 | > 100 | – | – | – | – | – | – | – | – | – | – | – | –
COc1ccc(-c2ccc(/C=N/n3c(COc4ccc(Cl)cc4Cl)nn(CN4CCN(C)CC4)c3=S)o2)c([N+](=O)[O-])c1 | 29.5 | 41.5 | > 100 | > 100 | – | 9.67 | 32.9 | 37.5 | 16 | 17.8 | 26.7 | 41.2 | – | 2.43 | 6.86 | 16.8 | 15.9 | 37.5 | 17.6 | 76.8
Nc1nc(=S)[nH]c(C(=O)Nc2ccc(Cl)c(Cl)c2)c1-c1ccc(Cl)cc1 | > 100 | > 100 | > 100 | > 100 | > 100 | > 100 | > 100 | > 100 | – | – | – | – | – | – | – | – | – | – | – | –
Cc1ccc(NC(=O)CCC/C(CC(=O)c2ccc(Br)cc2)=N/NC(=O)CC#N)cc1 | > 100 | > 100 | > 100 | > 100 | > 100 | > 100 | > 100 | > 100 | – | – | – | – | – | – | – | – | – | – | – | –
C[C@]12CC[C@H](OCCC#N)CC1=CC[C@@H]1C2CC[C@]2(C)/C(=N/OCCC#N)CCC12 (stereo partly drawn) | > 100 | > 100 | > 100 | – | > 64.4 | > 88.6 | > 73.9 | > 100 | – | – | – | – | – | – | – | – | – | – | – | –
Cc1cccc(C)c1NC(=O)CCc1nnc2s/c(=C\c3ccc(Cl)cc3)c(=O)n12 | 57.2 | > 100 | > 100 | > 100 | > 100 | > 100 | > 100 | > 100 | – | – | – | – | – | – | – | – | – | – | – | –
O=S(=O)(c1ccc(N=C2NN=C(c3c[nH]c4ccccc34)CS2)cc1)N1CCOCC1 | > 100 | > 100 | > 100 | > 100 | > 100 | > 100 | – | – | 7.35 | 79.4 | 19.1 | 4.48 | 3.7 | 26.3 | – | – | 8.85 | > 100 | 10.3 | > 100
CN(C)CC/C(=N\Nc1ccccc1)c1ccccc1 | 34.4 | – | 22.8 | 10 | 36.5 | 41.2 | > 100 | 6.89 | – | – | – | – | – | – | – | – | – | – | – | –
O=C1c2ccccc2C2(O)NC(=S)N(c3ccccc3)C12O (stereo not drawn) | > 100 | – | > 100 | > 100 | > 100 | > 100 | – | > 100 | – | – | – | – | – | – | – | – | – | – | – | –
CCC[CH2][Sn]([CH2]CCC)([O]C(=O)C(N)CSC)[O]C(=O)C(N)CSC (stereo not drawn) | 24.7 | 23.4 | 27.4 | 44.7 | 20.3 | 21.5 | 18.8 | – | 11.6 | 8.82 | 14.3 | 17.2 | 8.05 | 9.03 | 6.83 | – | – | – | – | –
COc1cc(C(=O)C/C(CCC(=O)Nc2ccc(Cl)cc2C)=N/NC(=O)C(N)=O)ccc1O | > 100 | > 100 | > 100 | > 100 | > 100 | > 100 | – | > 100 | – | – | – | – | – | – | – | – | – | – | – | –
CC(=O)N/C(=C\c1cccc([N+](=O)[O-])c1)c1nc2c3c(ccc2[nH]1)C(=O)c1ccccc1C3=O | > 100 | > 100 | > 69.3 | > 100 | > 100 | > 100 | > 100 | > 100 | – | – | – | – | – | – | – | – | – | – | – | –
COc1ccc2cc3[n+](cc2c1OC)CCc1cc(O)c(O)cc1-3 | > 100 | > 100 | > 100 | > 100 | > 100 | > 100 | > 100 | > 100 | – | – | – | – | – | – | – | – | – | – | – | –
Cc1nc2cc(N)c(F)cc2[nH]1 | – | > 100 | > 100 | > 100 | > 100 | > 100 | > 100 | > 100 | – | – | – | – | – | – | – | – | – | – | – | –
